Measured values as given in patent US9688613B2 (Jiva Pharma, Inc., priority 2015, dated 2017).

Test system: GABA-A receptors
Assay: Displacement of [3H] muscimol from GABA-A receptors
Type: binding
Description: Muscimol is the principal psychoactive constituent of Amanita muscaria and related species of mushroom.
These tests were performed using the procedure described by Tomasz Plech et. al., Studies on anticonvulsant activity of 4-alkyl-1,2,4-triazole-3-thiones and their effect on GABAergic system; European J. of Medicinal Chem. 2014, 86, 690-699.

CC/C=C\C/C=C\C/C=C\C/C=C\C/C=C\C/C=C\CCC(CN)CC(=O)O (centres unmarked) [Example 1, 3-Aminomethyl-tetracosa-6,9,12,15,18,21-hexaenoic Acid]
% of [3H]-MUSCIMOL inhibition (LOG OF MOLAR CONC. −4): 10%
% of [3H]-MUSCIMOL inhibition (LOG OF MOLAR CONC. −5): 0%

CC/C=C\C/C=C\C/C=C\C/C=C\C/C=C\CCCC(CN)CC(=O)O (centres unmarked) [Example 2, 3-Aminomethyl-docosa-7,10,13,16,19-pentaenoic Acid]
% of [3H]-MUSCIMOL inhibition (LOG OF MOLAR CONC. −4): 15%
% of [3H]-MUSCIMOL inhibition (LOG OF MOLAR CONC. −5): 10%

CC/C=C\C/C=C\C/C=C\CCCCCCCC(CN)CC(=O)O (centres unmarked) [Example 3, 3-Aminomethyl-eicosa-11,14,17-trienoic Acid]
% of [3H]-MUSCIMOL inhibition (LOG OF MOLAR CONC. −4): 8%
% of [3H]-MUSCIMOL inhibition (LOG OF MOLAR CONC. −5): 0%

CC(C)C[C@H](CN)CC(=O)O [Pregabalin, S-isobutylgaba, reference compound]
% of [3H]-MUSCIMOL inhibition (LOG OF MOLAR CONC. −4): 12%
% of [3H]-MUSCIMOL inhibition (LOG OF MOLAR CONC. −5): 0%
